{
  "source": "patent US8062859B2",
  "about": "“Method for screening anticancer substances, set or kit for implementing said method” (Centre National de la Recherche Scientifique (CNRS), priority 2005, dated 2011)",
  "assay_type_in_all_cases": "cell-based",
  "key": {"[1]": {"tested_on": "SW620 metastatic cell line", "test": "Invasion test (Matrigel, FluoroBlock inserts)", "experimental": "2. Invasion Test 1—On D-2, thaw the Matrigel at 4° C. all night 2—On D-1 measure the Matrigel into insert chambers: Put all the necessary material on ice (Matrigel, culture medium, tips, eppendorfs, etc. . . . ). Put the FluoroBlock inserts (FALCON, ref: 351152) in the 24-well plates (FALCON, ref: 353504). Dilute the Matrigel to 2 mg/ml in cold serumless medium (if the cells are to be subjected to a treatment X, include the product in the Matrigel, e.g.: Y 27632) Aliquot 100 μl of 2 mg/ml Matrigel per insert avoiding creating bubbles. Leave O/N at 37° C. in a humid atmosphere (in an incubator) 3—On D day, plate the cells on the Matrigel: First put 700 μl of 10% serum medium in a 24-well plate and transfer the inserts to this plate. Trypsinate the cells (previously treated or not . . . ) and take them up in 2% serum medium. Plate 50 000 cells per insert in 200 μl of 2% serum medium on the Matrigel (optionally put Y27632 into the plated cells). 4—The migration time varies depending on the cell type but generally allowing them to migrate for 8 hours fixing a point every 2 hours seems suitable. To fix them, transfer the inserts to a 24-well plate containing 1 ml of formalin (3.7% formaldehyde in PBS), suck up the culture medium inside the chambers and also add formalin (very important, prevents the cells from continuing to migrate in the Matrigel). […] Read the OD at 490 nm."}, "[2]": {"tested_on": "SW620 metastatic cell line", "test": "Spreading ability of the cells (flat versus round phenotype)", "experimental": "FIG. 2 illustrates the effect of the treatment of metastatic cells of the SW620 cell line by the inhibitor Y-27632 on the spreading ability of the cells (FIG. 2A) and on the formation of E-cadherin type adhesion junctions (FIG. 2B). In FIGS. 2 A and 2 B: on the left: control cells without inhibitor; on the right: cells incubated with Y-27632. On the x-axis: the percentage of flat cells (FIG. 2A) or the percentage of cells forming E-cadherin type intercellular junctions (FIG. 2B). 2—Place the cells in 0% Serum for 18 to 24 hours then treat them or not with Y27 10 μM+PDGF 5 ng/ml for 36 to 48 h."}, "[3]": {"tested_on": "SW620 metastatic cell line", "test": "Formation of E-cadherin type intercellular junctions (immunofluorescent labelling of E-cadherin)", "experimental": "(§1) 1. Protocol for Immunofluorescent Labelling of e-Cadherin 1—The cells are plated in 6-well plates, each well containing 3 glass coverslips 10 mm in diameter. 2—Place the cells in 0% Serum for 18 to 24 hours then treat them or not with Y27 10 μM+PDGF 5 ng/ml for 36 to 48 h. 3—Fix the cells for 10 minutes with formalin (3.7% formaldehyde in PBS). 4—Saturation, 10 minutes PBS-BSA 5—Incubation of the primary antibody, diluted to 1:500 in PBS-BSA, 2 hours at 37° C. (Mouse anti E-cadherin, ZYMED, ref: 13-1700) 6—2 rapid washes in PBS-0.1% Tween 7—Incubation of the secondary antibody (Alexa Fluor® 488 F(ab′)2 fragment of goat anti mouse IgG, Molecular Probes ref: A-11017), diluted to 1:2000 in PBS-BSA, 30 minutes at 37° C. 8—2 rapid washes in PBS-0.1% Tween 9—Mounting in Mowiol medium between the slide and the coverslip."}, "[4]": {"tested_on": "CoLo205 metastatic cell line", "test": "Localisation of E-cadherin at intercellular junctions (immunofluorescent labelling)", "settings": "CoLo205, Y-27632 10 μM for 48 hours, FIG. 1", "experimental": "as §1"}, "[5]": {"tested_on": "SKCo-1 metastatic cell line", "test": "Localisation of E-cadherin at intercellular junctions (immunofluorescent labelling)", "settings": "SKCo-1, Y-27632 10 μM for 48 hours, FIG. 1", "experimental": "as §1"}},
  "data": [
    {"compound": "C[C@@H](N)[C@H]1CC[C@H](C(=O)Nc2ccncc2)CC1", "note": "[Y-27632]", "values": [
      {"measurement": "level of invasion, compared with CoN normal colon cells (in words)", "setting": "[1]; SW620 cells after treatment with Y-27632, FIG. 3B", "value": "very low level of invasion, comparable to that of CoN normal colon cells"},
      {"measurement": "invasive capacity (in words)", "setting": "[1]; SW620 cells treated with Y-27632, FIG. 3B", "value": "drastically reduce their invasive capacity"},
      {"measurement": "percentage of flat cells", "setting": "[2]; SW620 cells after treatment with Y-27632, FIG. 2A (control 30%)", "value": 90, "unit": "%"},
      {"measurement": "percentage of cells retaining a round phenotype", "setting": "[2]; SW620 cells after treatment with Y-27632, FIG. 2A (control 70%)", "value": 10, "unit": "%"},
      {"measurement": "spreading ability of the cells (in words)", "setting": "[2]; SW620 cells, FIG. 2A", "value": "enhances the spreading ability"},
      {"measurement": "location of E-cadherin at the junctions (in words)", "setting": "[3]; SW620, Y-27632 10 μM for 48 hours, FIG. 1", "value": "causes correct relocation of E-cadherin at the junctions"},
      {"measurement": "percentage of cells capable of forming E-cadherin type junctions", "setting": "[3]; SW620 cells after treatment with Y-27632, FIG. 2B (control 22%)", "value": 52, "unit": "%"},
      {"measurement": "formation of E-cadherin dependent junctions (in words)", "setting": "[3]; SW620 cells, FIG. 1B and FIG. 2B", "value": "enhances"},
      {"measurement": "location of E-cadherin at the junctions (in words)", "setting": "[4]", "value": "causes correct relocation of E-cadherin at the junctions"},
      {"measurement": "location of E-cadherin at the junctions (in words)", "setting": "[5]", "value": "causes correct relocation of E-cadherin at the junctions"}
    ]}
  ]
}
